Experimental data reported in patent publication US11779546B2, “Disassembly of cholesterol crystals” (IP SCIENCE LIMITED, priority 2018, dated 2023).
Entries after “also recorded” stand apart in the source; their conditions may differ.

What was measured:
[1] = Disassembly of crystallised cholesterol (Sigma) in ethanol solutions of test substance; format: physicochemical; conditions: 100 mg crystallised cholesterol; for ratio of carotenoid to cholesterol at which complete disaggregation of the crystals was observed: 20 ml ethanol, 20-22° C., gentle stirring for a couple of minutes; for effect on size or number of the cholesterol crystals: 20 ml ethanol solutions with different concentrations, room temperature
Experimental: To 100 mg of crystallised cholesterol (Sigma) 20 ml of ethanol solutions with different concentrations of lycopene were added. As a control, 20 ml of the same ethanol was used but without any lycopene. After gentle stirring for a couple of minutes, under the room temperature of about 20-22° C., recording of the results was made.
To 100 mg of crystallised cholesterol (Sigma) 20 ml of ethanol solutions with different concentrations of lutein were added. As a control, 20 ml of the same ethanol was used but without any lutein. After gentle stirring for a couple of minutes, at a room temperature of about 20-22° C., recording of the results was made.
To 100 mg of crystallised cholesterol (Sigma) 20 ml of ethanol solutions with different concentrations of a number of biologically active hydrophobic substances and oils were added. As a control, 20 ml of the same ethanol was used but without any additives. After gentle stirring for a couple of minutes, at a room temperature of about […], recording of the results was made.

[2] = Changes of physical properties of cholesterol crystals formed in presence of lycopene; format: physicochemical
Excerpt: In a range of experiments where ratio of cholesterol to lycopene varied, from 1,000 to at least 10,000,000 molecules of the former to 1 molecule of the latter, noticeable changes in the physical properties of crystals were observed.
In all control experiments, cholesterol crystallised into a plate-like crystals, see FIG. 2B and FIG. 2D. Sometimes they could create a thick flat plate of few centimetres across, like the one on the bottom of the glass in the experiment 2, FIG. 2C. However, when lycopene was present in the medium a formation of a new type of crystals was observed.
Under the light and confocal microscopy these difference between two types of cholesterol crystals, in size and shape, are more evident (FIGS. 5A-F and 6A-B).

[3] = Disassembly of cholesterol crystals in the arterial wall (pieces of atherosclerotic abdominal aorta incubated 13 days); design: species or system human; conditions: 1 μg/ml lycopene in ethanol diluted by PBS 10 fold, room temperature
Excerpt: It was important to confirm whether carotenoids, and lycopene in particular, can affect folding of cholesterol crystals, which are not just synthesized by a manufacturer, but produced naturally, and particularly those, which are developed during pathological process in human. For this purpose, we used pieces of atherosclerotic abdominal aorta, which were obtained during a combined vascular graft and by-pass surgery.
(§1) This was in terms of their stage of development, with prominently featured cholesterol crystals of similar size, embedded into the atheromatous tissues of the aorta wall. As a control material we collected pieces of the atherosclerotic abdominal aorta containing calcium phosphate crystals.
(§2) Firstly, an ethanol solution 1 μg/ml of lycopene was prepared. It was then diluted by PBS 10 fold. As a control, a solution was made with the same ratio ethanol to PBS but without lycopene. Then pieces of aorta were incubated, in light protected containers at the room temperature of about […] for 13 days.

[4] = Control: atherosclerotic abdominal aorta pieces containing calcium phosphate crystals incubated with lycopene; design: species or system human; conditions: lycopene-ethanol-PBS, 13 days, room temperature
Experimental: as §1, §2

[5] = Prevention of or interference into the formation of cholesterol crystals (evaporation of ethanol cholesterol solution); format: physicochemical; conditions: for effect on rate / formation of cholesterol crystallisation: less than one molecule of lycopene per million molecules of cholesterol
Experimental: A solution of 198 ml of 1 g of cholesterol (Sigma) in 99% ethanol was divided in two equal parts. In one part 1 ml of ethanol containing […] of the dissolved lycopene was added. This provided ratio of lycopene to cholesterol as 1:10^6. Into the other part, the control, 1 ml of the ethanol itself was added. Then both samples were left in the dark room for evaporation under 20-22° C. Recording of the status of the both samples were made at least on a daily or even shorter intervals.

CC1=C[C@H](O)CC(C)(C)[C@H]1/C=C/C(C)=C/C=C/C(C)=C/C=C/C=C(C)/C=C/C=C(C)/C=C/C1=C(C)C[C@@H](O)CC1(C)C [lutein]
ratio of carotenoid to cholesterol at which complete disaggregation of the crystals was observed [1]: 1 to 20,000

CC(C)=CCC/C(C)=C/C=C/C(C)=C/C=C/C(C)=C/C=C/C=C(C)/C=C/C=C(C)/C=C/C=C(\C)CCC=C(C)C [lycopene]
incorporation into newly formed cholesterol crystal structures [2]: able to incorporate into newly formed crystal structures | type (size and shape) of cholesterol crystals formed ([2]; cholesterol to lycopene 1,000 to at least 10,000,000 : 1, controls plate-like crystals): significantly smaller and in a shape of needle- or narrow tube-like crystals; also recorded: needle-like crystals | size of the remaining crystalloid structures [3]: reduced by at least two-fold | size of the surrounding cholesterol-rich atheromatous mass of the lesion [3]: reduced by about two-fold | number of crystalloid structures in the lesion at end of incubation ([3]; three structures at start): only two | ratio of carotenoid to cholesterol at which complete disaggregation of the crystals was observed [1]: 1 to 100,000 | effect on size or shape of calcium phosphate crystals [4]: did not affect size or shape of calcium phosphate crystals | effect on rate / formation of cholesterol crystallisation [5]: significantly affect the rate of its crystallisation | effect on rate / formation of cholesterol crystallisation ([5]; listed as Lycopene): prevents or slows down formation of cholesterol crystallisation | day by which crystallisation was completed ([5]; lycopene to cholesterol 1:10^6, ethanol evaporation in the dark, 20-22° C., control: 12th day): ≤ 14 days | day on which floating cholesterol crystals started to appear ([5]; lycopene to cholesterol 1:10^6, ethanol evaporation in the dark, 20-22° C., control: after two days): 6 days

phosphatidylcholine [reference compound]
effect on size or number of the cholesterol crystals [1]: not able to affect cholesterol crystals

tocopherol [reference compound]
effect on size or number of the cholesterol crystals [1]: ineffective
